18 compounds from PubChem BioAssay (NCI) can be followed below.

Values joined by “and” are separate entries in the source; they are usually repeats but may differ in a detail not shown here. Identical values can stand only once.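 Protocol summary: plate cells (96-well), add compound at 5 concentrations, incubate 48 h, interpolate endpoints linearly. GI50 = concentration required for 50% inhibition of growth. TGI: concentration producing complete growth inhibition.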

One test relates to SK-OV-3 ovarian. In words: DTP human tumour cell line panel, 48 h.
One may read the GI50 as the concentration that inhibits growth by half. The TGI is the concentration at which net growth stops. Lower therefore signals greater sensitivity of the cells. In the case of `Cc1ccc(C(=O)Nc2ccc(CN3CCN(C)CC3)c(C(F)(F)F)c2)cc1C#Cc1cnc(N)c2ccc(F)cc12`, the GI50 was 0.684 µM and the TGI came out at 2.88 µM.

In the case of `CC1(C)CCC(C)(C)c2cc(C(=O)Nc3ccc(C(=O)O)cc3)ccc21`, the total growth inhibition concentration (TGI) was > 61.1 µM.

In the case of `CC1=C(C(=O)NC2CCCCC2)CC(C(=O)NC2CCCCC2)=C(C)N1`, the TGI was > 100 µM.

For `Cn1cc(C2=C(c3cn(C)c4ccc(N)cc34)C(=O)NC2=O)c2ccccc21`, the GI50 is 8.99 µM and the concentration for total growth inhibition (TGI) is > 25 µM.

On to `S=C(N/N=C/c1cc(Cl)cc(Cl)c1)NC12CC3CC(CC(C3)C1)C2`, for which the GI50 is 5.06 µM and the total growth inhibition concentration (TGI) was > 46 µM.

Consider `CCCCN1C(=O)CC2[C@@H]3CCc4cc(OC)ccc4C3CC[C@]2(C)C1=O` (some centres not stated), for which the total growth inhibition concentration (TGI) is > 10 µM.

On to `COc1cc2cc(Oc3ccc(NC(=O)c4cccc(C(F)(F)F)c4)cc3)c(C)nc2cc1OC`, for which the GI50 was > 100 µM and the TGI is > 100 µM.

`COc1cc(/C=C2\CN(C)CC3=C2Nc2nc(SC)[nH]c(=O)c2C3c2cc(OC)c(OC)c(OC)c2)cc(OC)c1OC` (configuration not stated): the GI50 is 3.07 µM and the TGI is 12.5 µM.

On to `Cc1nc(SCC(N)=O)c2sc(=S)n(-c3ccccc3)c2n1`, for which the concentration for total growth inhibition (TGI) is > 10 µM.

As for `O=C(CC(C(=O)c1cccs1)c1ccc2c(c1)OCO2)c1ccc(Br)cc1` (configuration not stated), the TGI was > 100 µM.

Turning to `COc1cc(-c2oc3ccccc3c(=O)c2O)cc(OC)c1OC`, the TGI is > 100 µM.

With `CSc1ccc(/C=C2\CNC/C(=C\c3ccc(SC)cc3)C2=O)cc1`, the GI50 is 77.8 µg/mL; the TGI is > 170 µM and 148 µg/mL.

Turning to `Clc1ccc(COC(Cn2ccnc2)c2ccc(Cl)cc2Cl)cc1` (configuration not stated), the GI50 is 4.24 µM; the TGI is 14.8 µM and 26.8 µM and 35.2 µM.

With `CC[C@H](C)[C@H](NC(=O)c1cnccn1)C(=O)N(C)[C@H](C[C@@H](OC(C)=O)c1nc(C(=O)N[C@@H](Cc2ccccc2)C[C@H](C)C(=O)OC)cs1)C(C)C`, the GI50 is 1.95 µM and the total growth inhibition concentration (TGI) was > 33.3 µM.

Turning to `Nc1c(C(=O)Nc2ccc([As](=O)(O)O)cc2)cnc2nnnn12`, the total growth inhibition concentration (TGI) is > 100 µM.

In the case of `CC(C)n1c(/C=C/[C@@H](O)C[C@@H](O)CC(=O)O)c(-c2ccc(F)cc2)c2ccccc21`, the GI50 is 19.8 µM and > 51.3 µM; the TGI was > 100 µM.

`N#CC(C#N)SCc1ccccc1`: the TGI was > 49 µM.

Regarding `CCOc1ccc(NCC2CC/C(=C\C=C\c3ccccc3)C2=O)cc1` (configuration not stated), the total growth inhibition concentration (TGI) is > 100 µM.

A further test has as its system NCI-H460 lung. In words: DTP human tumour cell line panel, 48 h.
As to `Cc1ccc(C(=O)Nc2ccc(CN3CCN(C)CC3)c(C(F)(F)F)c2)cc1C#Cc1cnc(N)c2ccc(F)cc12`, the GI50 was 0.232 µM and the TGI came to 0.647 µM.

In turn, `CC1(C)CCC(C)(C)c2cc(C(=O)Nc3ccc(C(=O)O)cc3)ccc21` showed a TGI of 46.9 µM.

As to `CC1=C(C(=O)NC2CCCCC2)CC(C(=O)NC2CCCCC2)=C(C)N1`, the TGI was > 100 µM.

Take `Cn1cc(C2=C(c3cn(C)c4ccc(N)cc34)C(=O)NC2=O)c2ccccc21`: the GI50 was 9.53 µM and the TGI was > 25 µM.

With `S=C(N/N=C/c1cc(Cl)cc(Cl)c1)NC12CC3CC(CC(C3)C1)C2`, the GI50 was 2.66 µM and the TGI was > 100 µM.

In the case of `CCCCN1C(=O)CC2[C@@H]3CCc4cc(OC)ccc4C3CC[C@]2(C)C1=O` (some centres not stated), the concentration for total growth inhibition (TGI) is > 10 µM.

As for `COc1cc2cc(Oc3ccc(NC(=O)c4cccc(C(F)(F)F)c4)cc3)c(C)nc2cc1OC`, the GI50 is 4.07 µM and the TGI is > 100 µM.

As for `COc1cc(/C=C2\CN(C)CC3=C2Nc2nc(SC)[nH]c(=O)c2C3c2cc(OC)c(OC)c(OC)c2)cc(OC)c1OC` (configuration not stated), the GI50 is 2.3 µM and the total growth inhibition concentration (TGI) came to 5.4 µM.

As to `Cc1nc(SCC(N)=O)c2sc(=S)n(-c3ccccc3)c2n1`, the TGI is > 10 µM.

`O=C(CC(C(=O)c1cccs1)c1ccc2c(c1)OCO2)c1ccc(Br)cc1` (configuration not stated): the TGI was > 100 µM.

With `COc1cc(-c2oc3ccccc3c(=O)c2O)cc(OC)c1OC`, the TGI was > 100 µM.

Consider `CSc1ccc(/C=C2\CNC/C(=C\c3ccc(SC)cc3)C2=O)cc1`, for which the GI50 is 114 µg/mL; the total growth inhibition concentration (TGI) is > 371 µM and 150 µg/mL.

As for `Clc1ccc(COC(Cn2ccnc2)c2ccc(Cl)cc2Cl)cc1` (configuration not stated), the GI50 is 2.69 µM; the concentration for total growth inhibition (TGI) was 10.1 µM and 44.4 µM and 28.7 µM.

On to `CC[C@H](C)[C@H](NC(=O)c1cnccn1)C(=O)N(C)[C@H](C[C@@H](OC(C)=O)c1nc(C(=O)N[C@@H](Cc2ccccc2)C[C@H](C)C(=O)OC)cs1)C(C)C`, for which the GI50 was 1.15 µM and the concentration for total growth inhibition (TGI) was > 33.3 µM.

With `Nc1c(C(=O)Nc2ccc([As](=O)(O)O)cc2)cnc2nnnn12`, the TGI is > 100 µM.

In the case of `CC(C)n1c(/C=C/[C@@H](O)C[C@@H](O)CC(=O)O)c(-c2ccc(F)cc2)c2ccccc21`, the GI50 is 3.91 µM and 4.98 µM; the concentration for total growth inhibition (TGI) is > 100 µM.

On to `N#CC(C#N)SCc1ccccc1`, for which the TGI is > 41.6 µM.

With `CCOc1ccc(NCC2CC/C(=C\C=C\c3ccccc3)C2=O)cc1` (configuration not stated), the TGI is > 80.8 µM.

Another test concerns T-47D breast. In words: DTP human tumour cell line panel, 48 h.
For the compound `Cc1ccc(C(=O)Nc2ccc(CN3CCN(C)CC3)c(C(F)(F)F)c2)cc1C#Cc1cnc(N)c2ccc(F)cc12`, the GI50 was 0.77 µM and the TGI is 3.68 µM.

With `CC1(C)CCC(C)(C)c2cc(C(=O)Nc3ccc(C(=O)O)cc3)ccc21`, the TGI was > 79.4 µM.

Regarding `CC1=C(C(=O)NC2CCCCC2)CC(C(=O)NC2CCCCC2)=C(C)N1`, the concentration for total growth inhibition (TGI) was > 100 µM.

As to `Cn1cc(C2=C(c3cn(C)c4ccc(N)cc34)C(=O)NC2=O)c2ccccc21`, the GI50 was 18.8 µM and the concentration for total growth inhibition (TGI) is > 25 µM.

As for `S=C(N/N=C/c1cc(Cl)cc(Cl)c1)NC12CC3CC(CC(C3)C1)C2`, the GI50 is 6.94 µM and the TGI is > 100 µM.

Turning to `CCCCN1C(=O)CC2[C@@H]3CCc4cc(OC)ccc4C3CC[C@]2(C)C1=O` (some centres not stated), the TGI is > 10 µM.

With `COc1cc2cc(Oc3ccc(NC(=O)c4cccc(C(F)(F)F)c4)cc3)c(C)nc2cc1OC`, the GI50 was 3.23 µM and the concentration for total growth inhibition (TGI) was > 100 µM.

In the case of `COc1cc(/C=C2\CN(C)CC3=C2Nc2nc(SC)[nH]c(=O)c2C3c2cc(OC)c(OC)c(OC)c2)cc(OC)c1OC` (configuration not stated), the GI50 was 3.69 µM and the TGI was 22.6 µM.
